Experiment: UVA-induced photon emission (chemiluminescence, ICL-H) of permanently waved hair tresses after treatment with rinse-off formulation
Design: species or system human
Conditions: Example 1; for UVA-induced photon emission (chemiluminescence), measure of hair damage: measured two days after treatment, damage by permanent wave alone 555%
Protocol: The effect of taurinamide hydrochloride on the regeneration of permanently waved hair was investigated. For this, three tresses of European hair (left natural, dense, color 7.0; Kerling) were subjected to a permanent wave treatment. The permanent wave solution had the following composition:
The tresses were washed for 1 min in a shaking machine (13.5% Texapon K12P in demineralized water) and rinsed for 2 minutes with lukewarm water. The tresses were saturated with permanent waving solution until drop-wet (10 ml for 3 tresses). After a contact time of 30 minutes, they were rinsed for 3 minutes with lukewarm water. The treatment with the permanent waving solution was repeated three times. The drop-wet tresses were then saturated with neutralizing solution (10 ml for 3 tresses). After a contact time of 10 minutes, they were rinsed for 3 minutes with lukewarm water.
To determine the effect of taurinamide, the following rinse-off formulations which comprised varying amounts of taurinamide hydrochloride were used:
The formulations were applied to the tresses from both sides using a paint brush on a glass plate (30 g for 3 tresses). After a contact time of 10 minutes, they were rinsed for 3 minutes with lukewarm water. The hair was then left to dry in the air.
Two days after the treatment, the UVA-induced photon emission (chemiluminescence) was measured. The photon emission is a measure of the hair damage. It was measured in accordance with the method described by S. Benard, H. Nerenz, M. Rohr and A. Schrader in IFSCC magazine Vol. 4 (2001), 185-189 (ICL-H (Induced Chemiluminescence of Human Hair) A new method for quantitative analysis of hair stress).

For `Cl.NCCS(N)(=O)=O` [Taurinamide, taurinamide hydrochloride], which “UVA-induced photon emission (chemiluminescence), measure of hair damage” value (shortened to “UVA-induced photon emission”) (0.1% by wt. taurinamide HCl rinse-off formulation 1.1, 10 min contact) is on record?
Its value is 329%.

And the “UVA-induced photon emission” value (0.5% by wt. taurinamide HCl rinse-off formulation 1.2, 10 min contact)?
Its value is 209%.

And the “UVA-induced photon emission” value (1% by wt. taurinamide HCl rinse-off formulation 1.3, 10 min contact)?
Its value is 185%.

What about the “UVA-induced photon emission” value (5% by wt. taurinamide HCl rinse-off formulation 1.4, 10 min contact) of the same compound?
Its value is 118%.

What about the “effect of treatment on hair damage (in words)” value (permanently waved hair, 0.1-5% taurinamide formulations) of the same compound?
Its value is “significantly reduces hair damage”.
